Source: patent US20170260178A1 (SPERO GYRASE, INC., priority 2012, published 2017)

How the values were obtained:
S. aureus (ATCC 29213) = assay: Bacterial assay: MIC against S. aureus; assay type: cell-based, Staphylococcus aureus; settings: Staphylococcus aureus, ATCC29213, read-out: minimal inhibitory concentration (MIC)
S. pyogenes (ATCC 51339) = assay: Bacterial assay: MIC against S. pyogenes; assay type: cell-based, Streptococcus pyogenes; settings: Streptococcus pyogenes, ATCC51339, read-out: minimal inhibitory concentration (MIC)
[1] = tested on: H. influenzae (ATCC 49247); assay: Bacterial assay: MIC against H. influenzae; assay type: cell-based; settings: Haemophilus influenzae, ATCC49247; H. influenzae ATCC 49247; read-out: minimal inhibitory concentration (MIC)
S. aureus ATCC29213 = assay: Rat thigh infection model; assay type: in vivo; settings: neutropenic Sprague-Dawley rats, IV ≦40 mg/kg
Description: The thighs of Sprague-Dawley rats (250-275 g), rendered neutropenic by the intraperitoneal administration of cyclophosphamide (75 mg/kg on days −4 and −1), were inoculated with approximately 1×10^7 cfus of S. aureus ATCC29213.
Compounds were administered as indicated 2 hours later and the cfus enumerated at various times post dosing by harvesting the thighs, homogenising in PBS on ice and plating serial dilutions onto CLED agar plates for growth at 37° C. and colony counting.

S. pneumoniae ATCC6301 [2] = assay: Mouse lung infection model (Gram positive); assay type: in vivo; settings: CD-1 mice, IV 30 mg/kg, cfus at 48 hours post inoculation
Description: Anaesthetised female CD-1 mice (18-22 g) were inoculated intranasally with approximately 10^6 cfus of S. pneumoniae ATCC6301 prepared from a fresh overnight culture by placing 50 μl of inoculum on the nares and allowing the mice to inhale. Compounds were administered as indicated at 24 hours post inoculation and the cfus enumerated at 48 hours post inoculation by harvesting the lungs, homogenising in PBS on ice and plating serial dilutions onto TSA+5% blood plates for growth overnight at 37° C. and colony counting.

S. pneumoniae ATCC6301 [3] = assay: Mouse survival model (lung infection); assay type: in vivo; settings: CD-1 mice, IV 10 mg/kg, at seven or nine days
Description: Anaesthetised female CD-1 mice (18-22 g) were inoculated intranasally with approximately 10^6 cfus of S. pneumoniae ATCC6301 prepared from a fresh overnight culture by placing 50 μl of inoculum on the nares and allowing the mice to inhale. Compounds are administered as indicated at 24, 48 and 72 hours post inoculation and the mice monitored for survival for seven or nine days after infection. […] Similarly, when Compound 17 was dosed IV at 30 mg/kg 90% of mice survived at day seven.

SMILES: CCNC(=O)Nc1nc2cc(-c3cnc(C(C)(C)O)nc3)cc(-c3ccccn3)c2s1 [Compound 1, 1-ethyl-3-[5-[2-(1-hydroxy-1-methyl-ethyl)pyrimidin-5-yl]-7-(2-pyridyl)-1,3-benzothiazol-2-yl]urea]
- MIC (S. aureus (ATCC 29213)): ≤ 1 µg/mL
- MIC (S. pyogenes (ATCC 51339)): ≤ 1 µg/mL
- MIC [1]: ≤ 2 µg/mL
- log drop in colony forming units compared to the control (S. aureus ATCC29213): ≥ 3 log
- log drop in colony forming units compared to the control (S. pneumoniae ATCC6301 [2]): ≥ 3 log
- mice surviving (S. pneumoniae ATCC6301 [3]): 80%
